In assay [1] the target is angiotensin II receptor. Nature of the assay: Rat adrenal receptor binding assay, displacement of radiolabeled angiotensin II. On the set-up: species or system rat (male Sprague-Dawley). Conditions: rat adrenal cortex membranes; 125I-A II 1 nM; read-out: Inhibition of 125I-Angiotensin II binding, IC50. The method, then: The high affinity of the compounds for the angiotensin II receptor was established using a rat adrenal receptor binding assay, measuring the displacement of radiolabeled angiotensin II (A II) from the receptor, described as follows: Anesthetize male Sprague-Dawley rats (300-400 g body weight) with CO2 and sacrifice by cervical dislocation. Dissect adrenal glands and keep in ice-cold sucrose buffer. (0.2M sucrose, 1 mM EDTA, 10 mM Trizma base, pH=7.2). Remove medulla by squashing. Mince the cortex, rinse and homogenize in a chilled ground glass tissue grinder with 15 ml sucrose buffer. Centrifuge at 3000× g for 10 min. (Sorvall RCSC centrifuge, SS34 rotor 6200 rpm). Decant supernatant through gauze. Centrifuge combined supernatants at 12000× g for 13 min. (Beckman ultracentrifuge, 80Ti rotor, 13000 rpm). Centrifuge the supernatant from the previous step at 102000× g for 60 min. (Beckman ultracentrifuge,80Ti rotor, 38200 rpm). All steps are carried out at 4° C. Resuspend the pellet in 0.5 mL assay buffer (50 mM Tris HCI, 5 mM MgCl2, 0.2% BSA (proteasefree), pH=7.4, 25° C.). Store on ice. Determine membrane protein by Lowry or Bradford assay with BSA as standard. The binding assay is performed in triplicate, in 12×75 mm plastic test tubes or in 96-well plate (final volume of 0.25 mL). Add 140 μL assay buffer. […] Calculate the quantities of hot A II and the cold A II needed and make the dilution. […]

In assay [2] the test system is Angiotensin II infused rat. Nature of the assay: Reduction of blood pressure in Angiotensin II infused rat. It counts as in vivo. Conditions: 3 mg/kg/ml via duodenal cannula. The method, then: In accordance with their ability to antagonize angiotensin II, the compounds of this invention show antihypertensive action in the following A II-infused rat model. Rats are anesthetized with Dial-Urethane (0.60 mL/kg, ip) and the trachea cannulated with PE 240. Either one femoral artery and both femoral veins or the carotid artery and the corresponding jugular vein are cannulated with PE 50. If the jugular vein is cannulated, two cannulas are placed in the one vein. The initial portion of the duodenum (just distal to the stomach) is cannulated with PE 50 via a small midline incision. Arterial pressure and heart rate are measured from the arterial cannula. Ten to 15 min are allowed following surgery for stabilization of arterial pressure. Ganglion blockade is then produced by intravenous administration of mecamylamine at 3 mg/kg (1 mL/kg of a 3 mg/mL solution). Ganglion blockade causes a fall in arterial pressure of about 50 mmHg. Mecamylamine is given every 90 min throughout the remainder of the experiment. An A II infusion is then begun into the other venous cannula at 0.25 μg/kg/min (at […]). The A II infusion returns arterial pressure to or slightly above the control level. Once arterial pressure has stabilized with the A II infusion, baseline values for mean arterial pressure (MAP) and heart rate are taken. The test compound, suspended in methyl cellulose, is then administered via the duodenal cannula at 0.1, 3 or, 30 mg/kg in a volume of 1 mL/kg. Mean arterial pressure and heart rate values are tabulated at 15, 30, 60, 90, 120, 150, 180, 210, and 240 min after administration of the test compound.

From patent publication US5185340A, “Pyrimidinyl arylalkyl ethers with antihypertensive activity” (American Home Products Corporation, priority 1992, dated 1993) come the findings set out here.

Turning to `CCCc1c(CC)nc(C(F)(F)F)nc1OCc1ccc(-c2ccccc2-c2nnn[nH]2)cc1` [Example 4, 6-Ethyl-5-propyl-4-[[2'-(1H-tetrazol-5-yl)[1,1'-biphenyl]-4-yl]methoxy]-2-(trifluoromethyl)pyrimidine], the IC50 in assay [1] came to 0.2 µM.

On to `FC(F)(F)c1nc2c(c(OCc3ccc(-c4ccccc4-c4nnn[nH]4)cc3)n1)CCCC2` [Example 5, 4-[[2'-(1H-Tetrazol-5-yl)-biphenyl-4-yl]methoxy]-2-trifluoromethyl-5,6,7,8-tetrahydroquinazoline], for which the “% decrease in MAP” value turned out to be 22% in assay [2] (15 min), 15% in assay [2] (90 min) and 0% in assay [2] (240 min). Also, the IC50 in assay [1] stood at 0.038 µM.

Usually IC50 stands for the point on the concentration scale where inhibition reaches its midpoint.
